Columns and labels:
[1] = Inhibition of wild type HIV-1 reverse transcriptase assessed as reduction in luciferase reporter activity by single-round assay
[2] = Inhibition of HIV-1 reverse transcriptase K103N mutant assessed as reduction in luciferase reporter activity by single-round assay
[3] = Inhibition of HIV-1 reverse transcriptase E138K mutant assessed as reduction in luciferase reporter activity by single-round assay
[4] = Inhibition of HIV-1 reverse transcriptase Y181C mutant assessed as reduction in luciferase reporter activity by single-round assay
[5] = Inhibition of HIV-1 reverse transcriptase Y188L mutant assessed as reduction in luciferase reporter activity by single-round assay

SMILES	EC50 [1] [nM]	EC50 [2] [nM]	EC50 [3] [nM]	EC50 [4] [nM]	EC50 [5] [nM]
Cc1cc(/C=C/C#N)cc(C)c1-n1cnc2cnc(Nc3ccc(C#N)cc3)nc21	0.2	0.4	0.7	1.5	9.6
Cc1cc(/C=C/C#N)cc(C)c1Nc1ncc2ncn(-c3ccc(C#N)cc3)c2n1	4.5	6.5	25	26	91
Cc1cc(/C=C/C#N)cc(C)c1Nc1ccnc(Nc2ccc(C#N)cc2)n1 [Rilpivirine]	0.4				

From BindingDB's records for PubMed 35175760 (Shandong University, 2022)
